Experimental data published in patent publication US20170008888A1 (KYORIN PHARMACEUTICAL CO., LTD., priority 2014, published 2017).

Tests used:
human PBMCs = test: Human PBMC TNF-α response to endotoxin (ELISA); format: cell-based; details: 0.1 μg/ml LPS 16 h, read-out: EC50 for the inhibition of the human PBMC TNF-α response to endotoxin, ave. ± S.D.
How it was run: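 PBMCs at 2e6 cells/ml in RPMI 1640 with 10% charcoal-dextran-treated FBS were pre-treated 1 h at 37 °C with compound (4-point 1:5 dilution from 10 μM). Stimulation with 0.1 μg/ml E. coli 0111:B4 LPS for 16 h; TNF-α measured by ELISA (A450) in 25-fold diluted supernatant.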

[1] = molecular target: T1, BRD4 bromodomain domain I [BRD4(1)] (Homo sapiens, UniProt O60885); test: BRD4 bromodomain domain 1 inhibition assay (TR-FRET); format: binding; details: for inhibition at 10 µM: screening concentration 10 μM
T1 construct: BRD4 bromodomain domain I [BRD4(1)]; purchased Cayman Chemicals
How it was run: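 0.5% DMSO, in triplicate, using Cayman BRD4(1) TR-FRET protocol with slight modification. 670/620 nm ratio normalized to 10 μM JQ1, with DMSO control set as 0% inhibition.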

[2] = molecular target: T2, recombinant human ERK5 catalytic domain (Homo sapiens, UniProt Q13164); test: Recombinant human ERK5 radiometric (HotSpot) assay; format: biochemical; details: 10 μM ATP, 20 μM myelin basic protein substrate; read-out: rhERK5 IC50
T2 construct: Recombinant human ERK5 catalytic domain radiometric assays; purchased Reaction Biology, Corp (Malvern, Pa.), which ran the assay as a service
Description: In this example, potency of the compounds in recombinant human ERK5 was assayed.
Recombinant human ERK5 catalytic domain radiometric assays were performed by Reaction Biology, Corp (Malvern, Pa.). The HotSpot radiometric assay is based on conventional filter-binding assays (Nature Biotechnology (2011) 29: 1039-1045). Compounds were tested at 20 μM down by ⅓ in a 10 point serial dilution series. Briefly, [γ-33P]-ATP was used as the tracer along with 10 μM cold ATP to label ERK5 in the presence of 20 μM myelin basic protein substrate.

T2 sequence (Q13164 55-347 limits assumed): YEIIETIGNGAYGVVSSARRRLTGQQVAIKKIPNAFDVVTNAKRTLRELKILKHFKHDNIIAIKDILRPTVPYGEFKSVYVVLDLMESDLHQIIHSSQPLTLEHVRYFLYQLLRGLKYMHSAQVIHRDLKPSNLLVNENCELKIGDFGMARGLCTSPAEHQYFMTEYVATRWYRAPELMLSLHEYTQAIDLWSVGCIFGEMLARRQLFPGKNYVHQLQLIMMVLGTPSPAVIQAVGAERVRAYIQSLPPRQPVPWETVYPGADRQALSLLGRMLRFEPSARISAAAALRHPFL

inhibition at 10 µM [1]	IC50 [2]	IC50 [1]	Compound	EC50 (human PBMCs)
> 85%	< 20 nM		CCOc1cc(C(=O)N2CCN[C@@H](C)C2)ccc1Nc1cc2c(cn1)N(C)C(=O)c1ccccc1N2C [Compound T25]	480 nM
> 85%	< 20 nM		CCOc1cc(C(C)N2CCCC2)ccc1Nc1cc2c(cn1)N(C)C(=O)c1ccccc1N2C (stereo not drawn) [Compound T26]	410 nM
> 85%	< 20 nM		CCOc1cc(C(C)N2CC[C@@H](O)C2)ccc1Nc1cc2c(cn1)N(C)C(=O)c1ccccc1N2C (stereo partly drawn) [Compound T27]	370 nM
> 85%	< 20 nM		CCOc1cc(C(=O)N2CCN[C@H](C)C2)ccc1Nc1cc2c(cn1)N(C)C(=O)c1ccccc1N2C [Compound T29]	350 nM
	20 to 50 nM		CCOc1cc(C(=O)N2CC[C@@H](N(C)CCO)C2)ccc1Nc1cc2c(cn1)N(C)C(=O)c1ccccc1N2C [Compound T55]	840 nM
	50 to 200 nM		CCOc1cc(C(=O)N2CCC[C@@H](N3CCCC3)C2)ccc1Nc1cc2c(cn1)N(C)C(=O)c1ccccc1N2C [Compound T57]	650 nM
	20 to 50 nM		CCOc1cc(C(=O)N2CC[C@@H](N3CCNCC3)C2)ccc1Nc1cc2c(cn1)N(C)C(=O)c1ccccc1N2C [Compound T58]	1040 nM
	50 to 200 nM	> 5000 nM	CCOc1cc(C(=O)N[C@H]2CC[C@H](O)CC2)ccc1Nc1cc2c(cn1)N(C)C(=O)c1ccccc1O2 [Compound T89]	1720 ± 1510 nM
	> 200 nM	> 5000 nM	CN1C(=O)c2cccc(F)c2Oc2cc(N[C@H]3CC[C@H](O)CC3)ncc21 [Compound T93]	1720 ± 1340 nM
	> 200 nM	> 5000 nM	CN1C(=O)c2cccc(Cl)c2Oc2cc(N[C@H]3CC[C@H](O)CC3)ncc21 [Compound T94]	1170 ± 1120 nM
	> 200 nM	2000 to 5000 nM	Cc1cccc2c1Oc1cc(N[C@H]3CC[C@H](O)CC3)ncc1N(C)C2=O [Compound T96]	1100 ± 860 nM
	50 to 200 nM	> 5000 nM	CCOc1cc(C(=O)N2CCN(C3CCN(C)CC3)CC2)ccc1Nc1cc2c(cn1)N(C)C(=O)c1ccccc1S2 [Compound T99]	3220 ± 2750 nM
	50 to 200 nM	> 5000 nM	CCOc1cc(C(=O)N2CCN(C3CCN(C)CC3)CC2)ccc1Nc1cc2c(cn1)N(C)C(=O)c1cccc(F)c1O2 [Compound T103]	1230 ± 1310 nM
	50 to 200 nM	2000 to 5000 nM	CCOc1cc(C(=O)N2CCN(C3CCN(C)CC3)CC2)ccc1Nc1cc2c(cn1)N(C)C(=O)c1cccc(Cl)c1O2 [Compound T104]	510 ± 240 nM
	50 to 200 nM	< 2000 nM	CCOc1cc(C(=O)N2CCN(C3CCN(C)CC3)CC2)ccc1Nc1cc2c(cn1)N(C)C(=O)c1cccc(OC)c1O2 [Compound T105]	430 ± 280 nM
	50 to 200 nM	< 2000 nM	CCOc1cc(C(=O)N2CCN(C3CCN(C)CC3)CC2)ccc1Nc1cc2c(cn1)N(C)C(=O)c1cccc(C)c1O2 [Compound T106]	270 ± 170 nM
	20 to 50 nM	< 2000 nM	CCOc1cc(C(=O)N2CCN(C3CCN(C)CC3)CC2)ccc1Nc1cc2c(cn1)N(C)C(=O)c1c(F)ccc(F)c1O2 [Compound T107]	300 ± 250 nM

inhibition at 10 µM [1]	IC50 [2]	IC50 [1]	Compound	EC50 (human PBMCs)
	50 to 200 nM	> 5000 nM	CCO[C@H]1CC[C@H](Nc2cc3c(cn2)N(C)C(=O)c2ccccc2N3C)CC1 [Compound T110]	2740 ± 1870 nM
	> 200 nM	> 5000 nM	CCOC1CCCC[C@H]1Nc1cc2c(cn1)N(C)C(=O)c1ccccc1N2C (stereo partly drawn) [Compound T113]	2950 ± 2170 nM
	> 200 nM	> 5000 nM	CN1C(=O)c2ccccc2N(C)c2cc(N[C@H]3CC[C@@H](O)CC3)ncc21 [Compound T114]	3070 ± 3350 nM
	> 200 nM	> 5000 nM	CN1C(=O)c2ccccc2Sc2cc(N[C@H]3CC[C@H](O)CC3)ncc21 [Compound T116]	1660 ± 1530 nM
	> 200 nM	> 5000 nM	CN1C(=O)c2ccccc2Oc2cc(N[C@H]3CC[C@H](O)CC3)ncc21 [Compound T117]	2700 ± 2720 nM
	> 200 nM	> 5000 nM	CN1C(=O)c2cccc(F)c2N(C)c2cc(N[C@H]3CC[C@H](O)CC3)ncc21 [Compound T118]	2430 ± 1780 nM
	50 to 200 nM	< 2000 nM	CN1C(=O)c2c(F)cccc2N(C)c2cc(N[C@H]3CC[C@H](O)CC3)ncc21 [Compound T119]	980 ± 930 nM
	> 200 nM	> 5000 nM	CN1C(=O)c2cccc(Cl)c2N(C)c2cc(N[C@H]3CC[C@H](O)CC3)ncc21 [Compound T120]	2390 ± 2110 nM
	50 to 200 nM	> 5000 nM	COc1cccc2c1N(C)c1cc(N[C@H]3CC[C@H](O)CC3)ncc1N(C)C2=O [Compound T122]	3490 ± 3000 nM
	20 to 50 nM	< 2000 nM	CCOc1cc(C(=O)N2CCN(C3CCN(C)CC3)CC2)ccc1Nc1cc2c(cn1)N(C)C(=O)c1c(F)cccc1N2C [Compound T124]	310 ± 220 nM
	50 to 200 nM	2000 to 5000 nM	CCOc1cc(C(=O)N2CCN(C3CCN(C)CC3)CC2)ccc1Nc1cc2c(cn1)N(C)C(=O)c1cccc(F)c1N2C [Compound T125]	790 ± 200 nM
	50 to 200 nM	> 5000 nM	CCOc1cc(C(=O)N2CCN(C3CCN(C)CC3)CC2)ccc1Nc1cc2c(cn1)N(C)C(=O)c1cccc(Cl)c1N2C [Compound T126]	970 ± 830 nM
	50 to 200 nM	2000 to 5000 nM	CN1C(=O)c2ccccc2N(C)c2cc(N[C@H]3CC[C@H](NS(N)(=O)=O)CC3)ncc21 [Compound T128]	2510 ± 1470 nM
	50 to 200 nM	2000 to 5000 nM	CN1C(=O)c2ccccc2N(C)c2cc(N[C@H]3CC[C@H](NS(=O)(=O)C4CC4)CC3)ncc21 [Compound T129]	1790 ± 1440 nM
	50 to 200 nM	> 5000 nM	CN1C(=O)c2ccccc2N(C)c2cc(N[C@H]3CC[C@H](N4CCCS4(=O)=O)CC3)ncc21 [Compound T136]	2030 ± 1910 nM
	50 to 200 nM	> 5000 nM	C[C@H]1C[C@H](Nc2cc3c(cn2)N(C)C(=O)c2ccccc2N3C)CC[C@H]1O [Compound T137]	1110 ± 990 nM
